“Also recorded” adds a separate entry of the source. Where two headings read alike, the source gives them in different places.
Tests used:
HL-60(TB) = test: NCI SRB screen, HL-60(TB); assay type: cell-based; conditions: Homo sapiens, Leukemia, 48 h
SR = test: NCI SRB screen, SR; conditions: Homo sapiens, 48 h, read-out: GI50 values
M14 = test: NCI SRB screen, M14; conditions: Homo sapiens, M14, 48 h, read-out: GI50 values
KM12 = test: NCI SRB screen, KM12; conditions: Homo sapiens, KM12, 48 h, read-out: GI50 values
ACHN = test: NCI SRB screen, ACHN; conditions: Homo sapiens, 48 h, read-out: GI50 values
T-47D = test: NCI SRB screen, T-47D; conditions: Homo sapiens, T47D, 48 h, read-out: GI50 values
MOLT-4 = test: NCI SRB screen, MOLT-4; conditions: Homo sapiens, MOLT-4, 48 h, read-out: GI50 values
HOP-62 = test: NCI SRB screen, HOP-62; conditions: Homo sapiens, HOP-62, 48 h, read-out: GI50 values
SF-268 = test: NCI SRB screen, SF-268; conditions: Homo sapiens, SF-268, 48 h, read-out: GI50 values
SF-295 = test: NCI SRB screen, SF-295; conditions: Homo sapiens, SF-295, 48 h, read-out: GI50 values
SF-539 = test: NCI SRB screen, SF-539; conditions: Homo sapiens, 48 h, read-out: GI50 values
SNB-19 = test: NCI SRB screen, SNB-19; conditions: Homo sapiens, SNB-19, 48 h, read-out: GI50 values
SNB-75 = test: NCI SRB screen, SNB-75; conditions: Homo sapiens, SNB-75, 48 h, read-out: GI50 values
IGROV1 = test: NCI SRB screen, IGROV1; conditions: Homo sapiens, IGROV-1, 48 h, read-out: GI50 values
BT-549 = test: NCI SRB screen, BT-549; conditions: Homo sapiens, BT-549, 48 h, read-out: GI50 values
UACC-62 = test: NCI SRB screen, UACC-62; conditions: Homo sapiens, UACC-62, 48 h, read-out: GI50 values
OVCAR-3 = test: NCI SRB screen, OVCAR-3; conditions: Homo sapiens, OVCAR-3, 48 h, read-out: GI50 values
OVCAR-5 = test: NCI SRB screen, OVCAR-5; conditions: Homo sapiens, OVCAR-5, 48 h, read-out: GI50 values
SK-OV-3 = test: NCI SRB screen, SK-OV-3; conditions: Homo sapiens, SK-OV-3, 48 h, read-out: GI50 values
RXF 393 = test: NCI SRB screen, RXF 393; conditions: Homo sapiens, RXF 393, 48 h, read-out: GI50 values
HS 578T = test: NCI SRB screen, HS 578T; conditions: Homo sapiens, 48 h, read-out: GI50 values
CCRF-CEM = test: NCI SRB screen, CCRF-CEM; conditions: Homo sapiens, 48 h, read-out: GI50 values
NCI-H226 = test: NCI SRB screen, NCI-H226; conditions: Homo sapiens, NCI-H226, 48 h, read-out: GI50 values
NCI-H460 = test: NCI SRB screen, NCI-H460; conditions: Homo sapiens, NCI-H460, 48 h, read-out: GI50 values
NCI-H522 = test: NCI SRB screen, NCI-H522; conditions: Homo sapiens, NCI-H522, 48 h, read-out: GI50 values, Non-small cell lung, NCI-H522
MALME-3M = test: NCI SRB screen, MALME-3M; conditions: Homo sapiens, 48 h, read-out: GI50 values
RPMI-8226 = test: NCI SRB screen, RPMI-8226; conditions: Homo sapiens, RPMI-8226, 48 h, read-out: GI50 values
CNS cancer cell lines = test: NCI SRB screen, CNS panel average; conditions: Homo sapiens, 48 h, read-out: Log10 GI50 (converted)
Renal cancer cell lines = test: NCI SRB screen, Renal panel average; conditions: Homo sapiens, 48 h, read-out: Log10 GI50 (converted)
[1] = tested on: Ovarian cancer cell lines; test: NCI SRB screen, Ovarian panel average; conditions: Homo sapiens, 48 h, read-out: Log10 GI50 (converted)
Leukemia cell lines = test: NCI SRB screen, Leukemia panel average; conditions: Homo sapiens, 48 h, read-out: Log10 GI50 (converted)
[2] = tested on: Prostate cancer cell lines; test: NCI SRB screen, Prostate panel average; conditions: Homo sapiens, 48 h, read-out: Log10 GI50 (converted)
MDA-MB-435 = test: NCI SRB screen, MDA-MB-435 (Melanoma panel); conditions: Homo sapiens, MDA-MB-435, 48 h, read-out: GI50 values
[3] = tested on: fifty six human tumor cell lines; test: NCI human tumor cell line screen (48 h, SRB), all cell lines; conditions: for GI50: Homo sapiens; for anticancer activity (in words): human cancer cell lines of the NCI panel; for Log10 TGI mean graph midpoint (MG_MID): human tumor cell lines, mean over the panel, total growth inhibition
[4] = read-out: Log10 GI50 mean graph midpoint (MG_MID) (converted)

Structure (SMILES) | GI50 (HL-60(TB)) [nM] | GI50 (SR) [nM] | GI50 (M14) [nM] | GI50 (KM12) [nM] | GI50 (ACHN) [nM] | GI50 (T-47D) [nM] | GI50 (MOLT-4) [nM] | GI50 (HOP-62) [nM] | GI50 (SF-268) [nM] | GI50 (SF-295) [nM] | GI50 (SF-539) [nM] | GI50 (SNB-19) [nM] | GI50 (SNB-75) [nM] | GI50 (IGROV1) [nM] | GI50 (BT-549) [nM] | GI50 (UACC-62) [nM] | GI50 (OVCAR-3) [nM] | GI50 (OVCAR-5) [nM] | GI50 (SK-OV-3) [nM] | GI50 (RXF 393) [nM] | other results
COc1ccc2[nH]c(-c3cc(-c4cc(OC)c(OC)c(OC)c4)n[nH]3)nc2c1 [9f, 5-methoxy-2-(3-(3,4,5-trimethoxyphenyl)-1H-pyrazol-5-yl)-1H-benzo[d]imidazole] | 1690 | 1740 | 1660 | 1700 | 2630 | 340 | 730 | 2020 | 2740 | 1620 | 2420 | 2980 | 2230 | 1900 | 890 | 1120 | 2050 | 3030 | 2830 | 2490 | GI50 (HS 578T): 2890 nM; GI50 (CCRF-CEM): 1290 nM; GI50 (NCI-H226): 460 nM; GI50 (NCI-H460): 2640 nM; GI50 (NCI-H522): 1210 nM; GI50 (MALME-3M): 1740 nM; GI50 (RPMI-8226): 640 nM; GI50 (CNS cancer cell lines): 2450 nM; GI50 (Renal cancer cell lines): 2240 nM; GI50 [1]: 2040 nM; GI50 (Leukemia cell lines): 1260 nM; GI50 [2]: 1550 nM; GI50 (MDA-MB-435): 1490 nM; GI50 ([3]; read-out: GI50 value range): 340 to 10000 nM; GI50 [3, 4]: 1700 nM; potency compared with compounds 6f, 6g, 7g and 10f ([3]; against all the cell lines tested): more potent; growth inhibitory activity (in words) ([3]; against breast cancer and leukemia cell lines): potential growth inhibitory activity; anticancer activity (in words) [3]: significant anticancer activity; also recorded: pronounced activities; Log10 TGI mean graph midpoint (MG_MID) [3]: −5.17
COc1cc(-c2cc(-c3nc4cc(Cl)c(Cl)cc4[nH]3)[nH]n2)cc(OC)c1OC [10f, 5,6-dichloro-2-(3-(3,4,5-trimethoxyphenyl)-1H-pyrazol-5-yl)-1H-benzo[d]imidazole] | 3340 | 3890 | 3570 | 3560 | 3540 | 1870 | 2490 | 3430 | 3950 | 3040 | 3280 | 5470 | 3120 | 3860 | 2840 | 1940 | 4050 | 7080 | 1730 | 3170 | GI50 (HS 578T): 4530 nM; GI50 (CCRF-CEM): 2350 nM; GI50 (NCI-H226): 2290 nM; GI50 (NCI-H460): 3330 nM; GI50 (NCI-H522): 2020 nM; GI50 (MALME-3M): 2700 nM; GI50 (RPMI-8226): 1750 nM; GI50 (CNS cancer cell lines): 3550 nM; GI50 (Renal cancer cell lines): 3550 nM; GI50 [1]: 4470 nM; GI50 (Leukemia cell lines): 2750 nM; GI50 [2]: 3020 nM; GI50 (MDA-MB-435): 3780 nM; GI50 ([3]; read-out: GI50 value range): 340 to 10000 nM; GI50 [3, 4]: 3310 nM; anticancer activity (in words) [3]: significant anticancer activity; also recorded: pronounced activities; Log10 TGI mean graph midpoint (MG_MID) [3]: −4.88

— US9951049B2, “Pyrazole linked benzimidazole conjugates and a process for preparation thereof” (Council of Scientific & Industrial Reseach, priority 2014, dated 2018)
